In patent publication US20220145264A1, “CULTURE MEDIUM FOR MAMMALIAN EXPANDED POTENTIAL STEM CELLS, COMPOSITION, AND METHODS THEREOF” (THE UNIVERSITY OF HONG KONG, priority 2019, published 2022):
Entries after “also recorded” stand apart in the source; their conditions may differ.

Legend:
pEPSCs^Emb = experiment: Requirement of individual culture components for pEPSCs (RT-qPCR, AP+ colony formation); format: cell-based, porcine; conditions: for number of colonies from single cells / pluripotency gene expression: removing the component from pEPSCM
Experimental: (§1) Porcine and human EPSC cultures were routinely maintained on STO feeders. STO feeder plates were prepared 3-4 days before passaging by thawing and plating the mitomycin C inactivated STO cells on 0.1% gelatinised plates at the density of ˜1.1×10^4 cells/cm^2. Porcine/human EPSC cells were maintained on STO feeder layers and enzymatically passaged every 3-5 days by a brief PBS wash followed by treatment for 3-5 minutes with 0.25% trypsin/EDTA (Gibco, Cat. No. 25500-054). The cells were dissociated and centrifuged (300 g×5 minutes) in M10 medium. M10: knockout DMEM (Gibco, Cat. No. 10829-018), 10% FBS (Gibco, Cat. No. 10270), 1× Glutamine Penicillin-Streptomycin (Thermo Fisher Scientific, Cat. No. 11140050) and 1×NEAA (Thermo Fisher Scientific, Cat. No. 10378-016). After removing supernatant, the porcine/human EPSCs were re-suspended and seeded in pEPSCM/hEPSCM supplemented with 5 μM ROCK inhibitor Y-27632 (Tocris, Cat. No. 1254). 5% FBS (Gibco, Cat. No. 10270) and 10% KnockOut Serum Replacement (KSR) (Gibco, Cat. No. 10828028) were added in pEPSCM and hEPSCM respectively to improve cells survive. 12-24 hours later, medium was switched to pEPSCM/hEPSCM only. Both pEPSCM and hEPSCM are N2B27 based media. N2B27 basal media (500 ml) was prepared by inclusion of the following components: 482.5 ml DMEM/F-12 (Gibco, Cat. No. 21331-020), 2.5 ml N2 supplement (Thermo Fisher Scientific, Cat. No. 17502048), 5 ml B27 supplement (Thermo Fisher Scientific, Cat. No. 17504044), 5 ml 1× Glutamine Penicillin-Streptomycin (Thermo Fisher Scientific, Cat. No. 11140-050), and 5 ml 1×NEAA (Thermo Fisher Scientific, Cat. No. 10378-016), 0.1 mM 2-mercaptoethanol (Sigma, Cat. No. M6250). pEPSCM (500 ml) was generated by adding the following small molecules and cytokines into 500 ml N2B27 basal media: 0.2 μM CHIR99021(GSK3i, TOCRIS, Cat. No. 4423), 1 μM WH-4-023 (SRC inhibitor, TOCRIS, Cat. No. 5413), 2.5 μM XAV939 (Sigma, Cat. No. X3004) or 2.5 μM IWR-1 (TOCRIS, Cat. No. 3532), […] Vitamin C (Sigma, Cat. No. 49752-100G), 10 ng/ml LIF (Stem Cell Institute, University of Cambridge. SCI) and 20 ng/ml ACTIVIN (SCI). hEPSCM (500 ml) was generated by adding the following components into 500 ml N2B27 basal media: 1.0 μM CHIR99021(GSK3 inhibitor, TOCRIS, Cat. No. 4423), 0.5 μM A-419259 (SRC inhibitor, TOCRIS, Cat. No. 3914), 2.5 μM XAV939 (Sigma, Cat. No. X3004), […] Vitamin C (Sigma, Cat. No. 49752-100G), 10 ng/ml LIF (SCI). Although both targeting SRC family kinases (SFKs), WH-4-023 and A419259 were preferred for porcine and human EPSCs, respectively. […] The concentrations of CHIR99021 for porcine and human EPSC cultures are 0.2 μM and 1.0 μM, respectively. […] 0.25 μM SB 590885 (BRAF inhibitor, R&D, Cat. No. 2650) and 2.0 μM SP600125 ([…], TOCRIS, Cat. No. 1496) were included to improve porcine and human EPSC cultures, but they were not essential for the routine maintenance of porcine and human EPSCs. All cell cultures in this paper were performed under conditions of 37° C. and 5% CO2 unless stated otherwise.
(§2) Total RNA was isolated using an RNeasy Mini Kit (Qiagen, Cat. No. 74106) for cultured cells or RNeasy Micro Kit (Qiagen, Cat. No. 74034) for sorted NANOS3-mCherry^+ cells. RNA was subsequently quantified and treated with gDNA WipeOut to remove genomic DNA. Complementary DNA (cDNA) was prepared using a QuantiTect Reverse Transcription Kit (Qiagen, Cat. No. 205311). RT-qPCR primers or TaqMan Gene Expression Assays (Life Technologies) are listed in Supplementary Table 10 and 11. ABsolute Blue qPCR ROX Mix (ABgene, Cat. No. AB4138B) were used for probe based qPCR assays and SYBR Green ROX qPCR Mastermix (Qiagen, Cat. No. 330523) were used for primer based qPCR assays. All qPCR reactions were performed on ABI 7900 HT Sequence Detection System (Life Technologies). Information on all primers and probes used for qPCR analysis are provided in Supplementary Table 10 and 11. Gene expression was determined relative to GAPDH using the […]. […]

H1-EPSCs = experiment: Requirement of individual culture components for hEPSCs (RT-qPCR, AP+ colony formation); format: cell-based, human
Experimental: as §1, §2

[1] = test system: NANOS3-H2BmCherry reporter pEPSCs^Emb; experiment: Induction of pPGCLCs from NANOS3-H2BmCherry reporter pEPSCs (EBs, FACS); format: cell-based, porcine; conditions: inhibition of BMP2/4 signaling in EB culture
Experimental: To analyse the contribution of donor mCherry^+ porcine EPSCs in day 25-27 chimeras, the half fetuses were dissected into small pieces representing several body parts (head, trunk and tail). The dissected tissues and placenta were digested with 1.0 mg/ml collagenase IV (Thermo Fisher Scientific, Cat. No. 17104019) for 1-3 hours at 37° C. on a shaker. A pipette was used to blow the tissue blocks and dissociate them into single cells. The dissociated cells were filtered with a 35 μm nylon mesh (Corning, Cat. No. 352235) to remove tissues clumps. After centrifugation, the cells were fixed using Fixation Medium according to the manufacturers' manual (BD Cytofix, Cat. No. 554655) and the washed cells were stored at 4° C. in PBS supplemented with 0.1% NaN3 (Sigma, Cat. No. 199931) and 5% FBS (Gibco, Cat. No. 10270) before analysed with flow cytometry. All the samples were analysed using BD LSR Fortessa cytometer. 561 nm (610/20 bandpass filter) and 488 nm (525/50 bandpass filter) channels were used to detect mCherry and excluded autofluorescence. PGC EBs were trypsinized with 0.25% trypsin/EDTA Gibco, Cat. No. 25500-054) at 37° C. for 15 mins and stained with PerCP-Cy5.5 conjugated anti-TNAP antibody. 561 nm (610/20 bandpass filter) and 488 nm (710/50 bandpass filter) channels were used to detect NANOS3-H2BmCherry^+/TNAP^+ cells. FACS data were analysed by Flowjo software. […]

human EPSCs = experiment: Differentiation of human EPSCs to trophoblast lineages (CDX2-H2B-Venus reporter flow cytometry, RT-qPCR); format: cell-based
Experimental: hEPSCs were dissociated with 0.25% trypsin/EDTA and seeded in gelatinised 6-well plates at a density of 0.1×10^6 cells/well. The cells were cultured in 20% KSR media supplemented with 5 μM ROCK inhibitor Y-27632 for 1 day. 20% KSR media: DMEM/F-12 (Gibco, Cat. No. 21331-020), 20% KnockOut Serum Replacement (KSR) (Gibco, Cat. No. 10828-028), 1× glutamine penicillin-streptomycin (Thermo Fisher Scientific, Cat. No. 11140-050), 1×NEAA (Thermo Fisher Scientific, Cat. No. 10378-016) and 0.1 mM 2-mercaptoethanol (Sigma, Cat. No. M6250). From the second day, different combinations of the TGFβ inhibitor SB431542 (10 μM, Tocris, Cat. No. 1514), BMP4 (50 ng/ml, R&D, Cat. No. 5020-BP) and the FGF receptor inhibitor PD173074 (0.1 μM, Tocris, Cat. No. 3044) were added into 20% KSR media to start the trophoblast differentiation. The cells were collected at indicated time points for analysis.

COc1ccc(N(C(=O)Oc2c(C)cccc2C)c2ccnc(Nc3ccc(N4CCN(C)CC4)cc3)n2)c(OC)c1 [WH-4-023]
expression of pluripotency factors (pEPSCs^Emb; removal of the SRC inhibitor, porcine EPSCs): reduced expression of pluripotency factors
pluripotency gene expression (H1-EPSCs; WH-4-023 used instead of A419259 in human EPSCs): lower pluripotency gene expression

Cc1c[nH]c(-c2cnc(NCCNc3ccc(C#N)cn3)nc2-c2ccc(Cl)cc2Cl)n1 [CHIR99021]
differentiation of EPSCs (pEPSCs^Emb; high concentration 3.0 μM, porcine EPSCs): induced differentiation; also recorded: induces porcine and human EPSC differentiation
proliferation (pEPSCs^Emb; porcine EPSCs): improved proliferation
number of colonies from single cells (pEPSCs^Emb): reduced
pluripotency gene expression (pEPSCs^Emb): did not affect
differentiation of EPSCs (H1-EPSCs; high concentration 3.0 μM, human EPSCs): induced differentiation; also recorded: induces porcine and human EPSC differentiation
proliferation (H1-EPSCs; human EPSCs): improved proliferation

CN1CCN(C2CCC(n3cc(-c4ccc(Oc5ccccc5)cc4)c4c(N)ncnc43)CC2)CC1 (stereo not shown) [A419259]
expression of pluripotency factors (H1-EPSCs; removal of the SRC inhibitor, human EPSCs): reduced expression of pluripotency factors

O=C1O[C@H]([C@@H](O)CO)C(O)=C1O [Vitamin C]
number of colonies from single cells (pEPSCs^Emb): reduced
pluripotency gene expression (pEPSCs^Emb): did not affect

c1ccc2c(-c3cnn4cc(-c5ccc(N6CCNCC6)cc5)cnc34)ccnc2c1 [LDN-193189]
formation of mCherry+/TNAP+ cell clusters [1]: abrogated

NC(=O)c1ccc(-c2nc(-c3ccc4c(c3)OCO4)c(-c3ccccn3)[nH]2)cc1 [SB431542]
cell survival and pluripotency factor expression (pEPSCs^Emb; adding the TGFβ inhibitor to pEPSCM): massive cell loss and down-regulation of pluripotency factors
cell differentiation (H1-EPSCs; adding the TGFβ inhibitor, human EPSCs): induced rapid cell differentiation
CDX2 reporter cells being CDX2-Venus+ (human EPSCs; TGFβ inhibition, cells collected 4 days after): 70%

B1: BMP4: cytokine (R&D, Cat. No. 5020-BP) promoting differentiation of human ESCs to putative trophoblasts (protein, UniProt P21275 293-408, looked up)
Bone morphogenetic protein 4: SPKHHPQRSRKKNKNCRRHSLYVDFSDVGWNDWIVAPPGYQAFYCHGDCPFPLADHLNSTNHAIVQTLVNSVNSSIPKACCVPTELSAISMLYLDEYDKVVLKNYQEMVVEGCGCR
expression of trophoblast genes (human EPSCs; 4-day BMP4 treatment, H1-EPSCs and iPSC-EPSCs versus H1-ESCs or H1-5i naïve ESCs): induced expression of trophoblast genes
